Assay results taken from patent publication US11697648B2, “Fused pyrimidine pyridinone compounds as JAK inhibitors” (THERAVANCE BIOPHARMA R&D IP, LLC, priority 2019, dated 2023).

Experiments:
JAK3 = JAK3 (Homo sapiens (Human), UniProt P52333); experiment: Biochemical JAK3 kinase assay (LanthaScreen)
Experimental: (§1) Assay 1: Biochemical JAK and Tyk2 Kinase Assays
(§2) A panel of four LanthaScreen JAK biochemical assays (JAK1, 2, 3 and Tyk2) were carried in a common kinase reaction buffer (50 mM HEPES, pH 7.5, 0.01% Brij-35, 10 mM MgCl2, and 1 mM EGTA). Recombinant GST-tagged JAK enzymes and a GFP-tagged STAT1 peptide substrate were obtained from Life Technologies.
(§3) Serially or discretely diluted compounds were pre-incubated with each of the four JAK enzymes and the substrate in white 384-well microplates (Corning) at ambient temperature for 1 h. ATP was subsequently added to initiate the kinase reactions in 10 μL total volume, with 1% DMSO. […] Kinase reactions were allowed to proceed for 1 hour at ambient temperature before a 10 μL preparation of EDTA (10 mM final concentration) and Tb-anti-pSTAT1 (pTyr701) antibody (Life Technologies, 2 nM final concentration) in TR-FRET dilution buffer (Life Technologies) was added. The plates were allowed to incubate at ambient temperature for 1 h before being read on the EnVision reader (Perkin Elmer). Emission ratio signals (520 nm/495 nm) were recorded and utilized to calculate the percent inhibition values based on DMSO and background controls.
(§4) For dose-response analysis, percent inhibition data were plotted vs. compound concentrations, and IC50 values were determined from a 4-parameter robust fit model with the Prism software (GraphPad Software). Results were expressed as pIC50 (negative logarithm of IC50) and subsequently converted to pKi (negative logarithm of dissociation constant, Ki) using the Cheng-Prusoff equation.

[1] = tested on: IL-2 stimulated STAT5 phosphorylation in Tall-1 human T cell line (JAK3); experiment: Cellular JAK3 potency assay: inhibition of IL-2 stimulated pSTAT5 in Tall-1 T cells; type: cell-based
Experimental: Assay 2: Cellular JAK3 Potency Assay: Inhibition of IL-2 Stimulated pSTAT5 in Tall-1 T Cells
The potency of test compounds for inhibition of interleukin-2 (IL-2) stimulated STAT5 phosphorylation was measured in the Tall-1 human T cell line (DSMZ) using AlphaLisa. Because IL-2 signals through JAK3, this assay provides a measure of JAK3 cellular potency.
Phosphorylated STAT5 was measured via the AlphaLISA SureFire Ultra pSTAT5 (Tyr694/699) kit (PerkinElmer).
Human T cells from the Tall-1 cell line were cultured in a 37° C., 5% CO2 humidified incubator in RPMI (Life Technologies) supplemented with 15% Heat Inactivated Fetal Bovine Serum (FBS, Life Technologies), 2 mM Glutamax (Life Technologies), 25 mM HEPES (Life Technologies) and 1× Pen/Strep (Life Technologies). Compounds were serially diluted in DMSO and dispensed acoustically to empty wells. Assay media (phenol red-free DMEM (Life Technologies) supplemented with 10% FBS (ATCC)) was dispensed (4 μL/well) and plates shaken at 900 rpm for 10 inns. Cells were seeded at 45,000 cells/well in assay media (4 μL/well), and incubated at 37° C., 5% CO2 for 1 hour, followed by the addition of IL-2 (R&D Systems; final concentration 300 ng/ml) in pre-warmed assay media (4 μL) for 30 minutes. After cytokine stimulation, cells were lysed with 6 ul of 3× AlphaLisa Lysis Buffer (PerkinElmer) containing 1× PhosStop and Complete tablets (Roche). The lysate was shaken at 900 rpm for 10 minutes at room temperature (RT). Phosphorylated STAT5 was measured via the pSTAT5 AlphaLisa kit (PerkinElmer). Freshly prepared acceptor bead mixture was dispensed onto lysate (5 μL) under green filtered <100 lux light. Plates were shaken at 900 rpm for 2 mins, briefly spun down, and incubated for 2 hrs at RT in the dark. Donor beads were dispensed (5 μL) under green filtered <100 lux light. Plates were shaken at 900 rpm for 2 minutes, briefly spun down, and incubated overnight at RT in the dark. Luminescence was measured with excitation at 689 nm and emission at 570 nm using an EnVision plate reader (PerkinElmer) under green filtered <100 lux light.
To determine the inhibitory potency of test compounds in response to IL-2, the average emission intensity of beads bound to pSTAT5 was measured in a human T cell line. IC50 values were determined from analysis of the inhibition curves of signal intensity versus compound concentration. Data are expressed as pIC50 (negative decadic logarithm IC50) values (mean standard deviation).

JAK1 = JAK1 (Homo sapiens (Human), UniProt P23458); experiment: Biochemical JAK1 kinase assay (LanthaScreen)
Experimental: as §1, §2, §3, §4

Tyk2 = Tyk2 (Homo sapiens (Human), UniProt P29597); experiment: Biochemical Tyk2 kinase assay (LanthaScreen)
Experimental: as §1, §2, §3, §4

JAK2 = JAK2 (Homo sapiens (Human), UniProt O60674); experiment: Biochemical JAK2 kinase assay (LanthaScreen)
Experimental: as §1, §2, §3, §4

[2] = selectivity JAK3 over JAK1, difference of pKi
[3] = IL-2 stimulated pSTAT5, Tall-1 T cells
[4] = selectivity, difference of pKi values
[5] = IL-2 stimulated pSTAT5 in Tall-1 T cells

Sequence of Tyk2 (P29597 whole entry): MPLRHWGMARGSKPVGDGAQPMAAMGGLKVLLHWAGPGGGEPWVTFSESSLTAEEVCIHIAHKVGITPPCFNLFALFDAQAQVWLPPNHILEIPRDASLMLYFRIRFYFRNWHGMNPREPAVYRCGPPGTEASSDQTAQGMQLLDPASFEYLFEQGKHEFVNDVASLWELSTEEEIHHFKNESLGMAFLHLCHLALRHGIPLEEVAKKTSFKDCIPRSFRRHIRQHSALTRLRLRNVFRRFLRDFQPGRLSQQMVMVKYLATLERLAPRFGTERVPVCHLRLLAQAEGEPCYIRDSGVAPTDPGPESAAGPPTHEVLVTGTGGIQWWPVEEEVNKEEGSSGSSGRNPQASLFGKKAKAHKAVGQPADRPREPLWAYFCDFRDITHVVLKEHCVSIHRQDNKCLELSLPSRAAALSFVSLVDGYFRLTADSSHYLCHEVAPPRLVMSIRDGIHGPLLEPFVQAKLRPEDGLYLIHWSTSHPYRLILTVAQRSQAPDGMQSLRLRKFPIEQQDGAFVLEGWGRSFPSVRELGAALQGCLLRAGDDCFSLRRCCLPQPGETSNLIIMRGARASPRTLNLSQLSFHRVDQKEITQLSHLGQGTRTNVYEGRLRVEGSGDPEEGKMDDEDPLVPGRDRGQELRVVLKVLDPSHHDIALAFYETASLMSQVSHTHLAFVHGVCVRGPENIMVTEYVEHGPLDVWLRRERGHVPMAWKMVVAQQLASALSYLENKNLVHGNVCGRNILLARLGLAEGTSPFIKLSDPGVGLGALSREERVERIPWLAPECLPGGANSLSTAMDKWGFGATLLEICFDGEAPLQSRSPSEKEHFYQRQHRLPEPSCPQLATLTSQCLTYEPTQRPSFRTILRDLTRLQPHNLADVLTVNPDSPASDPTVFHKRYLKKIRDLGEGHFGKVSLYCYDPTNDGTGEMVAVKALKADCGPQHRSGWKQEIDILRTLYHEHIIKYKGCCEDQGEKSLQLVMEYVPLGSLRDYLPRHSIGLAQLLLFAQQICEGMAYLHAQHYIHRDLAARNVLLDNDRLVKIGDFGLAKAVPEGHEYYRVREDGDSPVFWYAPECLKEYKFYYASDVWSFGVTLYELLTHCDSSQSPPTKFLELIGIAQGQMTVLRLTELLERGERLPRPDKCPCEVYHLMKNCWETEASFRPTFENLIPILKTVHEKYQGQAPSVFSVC
Sequence of JAK3 (P52333 whole entry): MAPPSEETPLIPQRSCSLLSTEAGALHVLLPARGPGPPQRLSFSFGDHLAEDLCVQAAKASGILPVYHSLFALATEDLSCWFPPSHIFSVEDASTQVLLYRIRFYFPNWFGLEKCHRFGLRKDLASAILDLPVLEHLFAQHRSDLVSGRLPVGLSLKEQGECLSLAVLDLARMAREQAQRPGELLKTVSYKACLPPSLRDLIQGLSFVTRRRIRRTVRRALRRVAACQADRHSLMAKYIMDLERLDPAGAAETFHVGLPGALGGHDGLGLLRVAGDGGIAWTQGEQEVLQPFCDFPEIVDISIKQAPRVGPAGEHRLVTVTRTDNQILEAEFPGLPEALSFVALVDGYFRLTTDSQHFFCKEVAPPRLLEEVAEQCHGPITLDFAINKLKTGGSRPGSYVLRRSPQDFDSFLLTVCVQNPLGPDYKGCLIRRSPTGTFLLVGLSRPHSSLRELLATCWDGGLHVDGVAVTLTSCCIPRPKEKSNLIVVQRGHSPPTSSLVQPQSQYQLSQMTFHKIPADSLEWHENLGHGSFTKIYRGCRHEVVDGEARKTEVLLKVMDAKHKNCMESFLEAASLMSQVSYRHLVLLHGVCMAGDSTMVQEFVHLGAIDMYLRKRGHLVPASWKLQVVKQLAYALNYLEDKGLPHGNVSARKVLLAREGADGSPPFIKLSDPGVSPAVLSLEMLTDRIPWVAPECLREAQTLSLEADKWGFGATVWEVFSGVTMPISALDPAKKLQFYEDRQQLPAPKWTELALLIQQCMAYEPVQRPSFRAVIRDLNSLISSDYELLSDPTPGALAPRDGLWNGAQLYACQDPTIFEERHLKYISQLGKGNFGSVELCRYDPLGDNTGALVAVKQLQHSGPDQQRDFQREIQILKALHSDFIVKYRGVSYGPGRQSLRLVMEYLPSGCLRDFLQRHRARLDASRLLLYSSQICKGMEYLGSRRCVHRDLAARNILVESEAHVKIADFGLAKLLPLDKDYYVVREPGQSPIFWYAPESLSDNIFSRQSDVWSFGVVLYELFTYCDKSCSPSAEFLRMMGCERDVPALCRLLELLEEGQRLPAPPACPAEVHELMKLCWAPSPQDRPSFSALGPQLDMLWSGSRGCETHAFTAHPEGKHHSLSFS
Sequence of JAK2 (O60674 whole entry): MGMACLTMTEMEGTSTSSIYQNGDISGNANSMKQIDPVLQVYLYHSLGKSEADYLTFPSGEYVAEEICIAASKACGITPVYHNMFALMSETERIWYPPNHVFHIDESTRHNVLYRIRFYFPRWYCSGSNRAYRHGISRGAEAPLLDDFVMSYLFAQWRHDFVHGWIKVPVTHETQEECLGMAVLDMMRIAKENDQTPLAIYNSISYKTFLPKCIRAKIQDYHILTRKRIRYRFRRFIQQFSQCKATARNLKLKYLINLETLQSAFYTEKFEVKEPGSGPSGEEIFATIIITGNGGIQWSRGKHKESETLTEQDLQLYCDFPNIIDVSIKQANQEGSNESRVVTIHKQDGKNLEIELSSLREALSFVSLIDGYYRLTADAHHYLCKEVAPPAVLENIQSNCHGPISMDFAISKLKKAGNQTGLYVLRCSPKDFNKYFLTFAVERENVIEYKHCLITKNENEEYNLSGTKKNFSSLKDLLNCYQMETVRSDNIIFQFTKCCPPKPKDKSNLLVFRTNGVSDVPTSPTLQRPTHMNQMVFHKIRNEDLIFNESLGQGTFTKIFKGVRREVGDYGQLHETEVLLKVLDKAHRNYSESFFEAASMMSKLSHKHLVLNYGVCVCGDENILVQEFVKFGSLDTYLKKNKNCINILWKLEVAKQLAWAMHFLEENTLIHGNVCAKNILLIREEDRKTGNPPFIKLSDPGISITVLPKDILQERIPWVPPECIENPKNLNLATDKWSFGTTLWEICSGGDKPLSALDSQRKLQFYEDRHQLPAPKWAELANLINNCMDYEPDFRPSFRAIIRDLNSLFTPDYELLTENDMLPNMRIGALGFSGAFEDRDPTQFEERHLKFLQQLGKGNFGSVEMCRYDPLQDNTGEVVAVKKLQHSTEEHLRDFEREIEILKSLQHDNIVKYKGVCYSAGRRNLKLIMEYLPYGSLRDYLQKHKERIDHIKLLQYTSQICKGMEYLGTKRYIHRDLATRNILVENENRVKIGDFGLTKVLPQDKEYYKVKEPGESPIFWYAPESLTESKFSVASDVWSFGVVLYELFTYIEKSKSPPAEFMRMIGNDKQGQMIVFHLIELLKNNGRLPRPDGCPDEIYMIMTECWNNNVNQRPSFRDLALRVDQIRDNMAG
Sequence of JAK1 (P23458 whole entry): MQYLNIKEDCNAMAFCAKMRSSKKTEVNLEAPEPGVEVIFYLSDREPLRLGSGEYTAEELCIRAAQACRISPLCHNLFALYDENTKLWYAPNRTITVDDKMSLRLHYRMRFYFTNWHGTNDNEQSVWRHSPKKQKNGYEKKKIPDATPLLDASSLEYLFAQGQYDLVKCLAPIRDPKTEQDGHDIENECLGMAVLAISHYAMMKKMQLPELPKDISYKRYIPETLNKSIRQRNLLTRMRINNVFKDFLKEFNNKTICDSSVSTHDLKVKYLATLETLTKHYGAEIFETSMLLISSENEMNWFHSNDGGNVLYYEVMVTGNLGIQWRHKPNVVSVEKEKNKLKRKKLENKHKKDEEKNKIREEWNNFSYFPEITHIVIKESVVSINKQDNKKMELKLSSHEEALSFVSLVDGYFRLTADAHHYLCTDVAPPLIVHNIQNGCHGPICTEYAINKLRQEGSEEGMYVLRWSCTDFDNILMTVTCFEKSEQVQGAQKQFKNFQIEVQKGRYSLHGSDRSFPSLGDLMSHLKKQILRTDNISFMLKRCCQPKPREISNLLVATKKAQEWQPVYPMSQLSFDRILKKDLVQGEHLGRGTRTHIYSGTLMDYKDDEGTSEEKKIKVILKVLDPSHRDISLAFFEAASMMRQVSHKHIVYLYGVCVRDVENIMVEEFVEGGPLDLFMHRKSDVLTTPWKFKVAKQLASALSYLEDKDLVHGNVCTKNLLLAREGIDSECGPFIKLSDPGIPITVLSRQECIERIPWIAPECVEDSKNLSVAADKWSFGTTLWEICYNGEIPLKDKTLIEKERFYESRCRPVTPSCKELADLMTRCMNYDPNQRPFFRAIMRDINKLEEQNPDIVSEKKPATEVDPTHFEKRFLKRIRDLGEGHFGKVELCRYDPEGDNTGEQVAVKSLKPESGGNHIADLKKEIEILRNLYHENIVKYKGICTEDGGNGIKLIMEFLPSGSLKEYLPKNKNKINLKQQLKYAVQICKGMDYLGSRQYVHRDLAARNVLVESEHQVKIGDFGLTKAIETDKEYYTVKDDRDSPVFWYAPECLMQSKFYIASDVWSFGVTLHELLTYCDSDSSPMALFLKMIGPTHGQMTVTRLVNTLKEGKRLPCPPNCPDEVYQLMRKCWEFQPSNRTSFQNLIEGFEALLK

| Structure (SMILES) | JAK 3 (pKi) (JAK3) | JAK3 (pKi)-JAK1 (pKi) (JAK3; [2]) | Tall-1 (pIC50) [1, 3] | JAK 1 (pKi) (JAK1) | Tyk 2 (pKi) (Tyk2) | JAK 2 (pKi) (JAK2) | JAK3 (pKi)-JAK1 (pKi) (JAK3; [4]) | Tall-1 (pIC50) [1, 5] |
| --- | --- | --- | --- | --- | --- | --- | --- | --- |
| C=CC(=O)N1CC(CCn2c(=O)ccc3cnc(Nc4ccc(N5CCN(C)CC5)c(C#N)c4)nc32)C1 [Example 9, 5-((8-(2-(1-acryloylazetidin-3-yl)ethyl)-7-oxo-7,8-dihydropyrido[2,3-d]pyrimidin-2-yl)amino)-2-(4-methylpiperazin-1-yl)benzonitrile] | B (B represents pKi value between 9 and 10 (Ki between 1 nM and 0.1 nM)) | A (A represents a value of 3 or above) | B (B represents a pC50 value between 6.7 (included) and 7.5 (IC50 between 200 nM and 32 nM)) | E (E represents a pKi value of 7 or below (Ki of 100 nM or above)) | E (E represents a pKi value of 7 or below (Ki of 100 nM or above)) | E (E represents a pKi value of 7 or below (Ki of 100 nM or above)) | – | – |
| CN(C)C/C=C/C(=O)N1CC(CCn2c(=O)ccc3cnc(Nc4ccc(N5CCN(C)CC5)cn4)cc32)C1 [Example 11, (E)-1-(2-(1-(4-(dimethylamino)but-2-enoyl)azetidin-3-yl)ethyl)-7-((5-(4-methylpiperazin-1-yl)pyridin-2-yl)amino)-1,6-naphthyridin-2(1H)-one] | B (B represents pKi value between 9 and 10 (Ki between 1 nM and 0.1 nM)) | A (A represents a value of 3 or above) | B (B represents a pC50 value between 6.7 (included) and 7.5 (IC50 between 200 nM and 32 nM)) | E (E represents a pKi value of 7 or below (Ki of 100 nM or above)) | E (E represents a pKi value of 7 or below (Ki of 100 nM or above)) | E (E represents a pKi value of 7 or below (Ki of 100 nM or above)) | – | – |
| C=CC(=O)N1CC(CCn2c(=O)ccc3cnc(Nc4ccc(N5CCN(C)CC5)c(Cl)c4)nc32)C1 [Example 17] | B (B represents pKi value between 9 and 10 (Ki between 1 nM and 0.1 nM)) | A (A represents a value of 3 or above) | B (B represents a pC50 value between 6.7 (included) and 7.5 (IC50 between 200 nM and 32 nM)) | E (E represents a pKi value of 7 or below (Ki of 100 nM or above)) | E (E represents a pKi value of 7 or below (Ki of 100 nM or above)) | E (E represents a pKi value of 7 or below (Ki of 100 nM or above)) | – | – |
| C=CC(=O)N1CCN(CCn2c(=O)ccc3cnc(Nc4ccn(CC)n4)nc32)[C@@H](CC)C1 [Example 256] | B (B represents pKi value between 9 and 10 (Ki between 1 nM and 0.1 nM)) | – | – | E (E represents a pKi value of 7 or below (Ki of 100 nM or above)) | – | – | A (A represents a value of 3 or above) | C (C represents a pIC50 value between 6 and 6.7 (IC50 between 1 μM and 200 nM)) |
| C=CC(=O)N1CC(CCn2c(=O)ccc3cnc(Nc4ccn(C(C)C)n4)nc32)C1 [Example 257] | B (B represents pKi value between 9 and 10 (Ki between 1 nM and 0.1 nM)) | – | – | E (E represents a pKi value of 7 or below (Ki of 100 nM or above)) | – | – | A (A represents a value of 3 or above) | B (B represents a pC50 value between 6.7 (included) and 7.5 (IC50 between 200 nM and 32 nM)) |
| C=CC(=O)N1CCN(CCn2c(=O)ccc3cnc(Nc4ccn(C(C)C)n4)nc32)[C@@H](C)C1 [Example 258] | B (B represents pKi value between 9 and 10 (Ki between 1 nM and 0.1 nM)) | – | – | E (E represents a pKi value of 7 or below (Ki of 100 nM or above)) | – | – | A (A represents a value of 3 or above) | C (C represents a pIC50 value between 6 and 6.7 (IC50 between 1 μM and 200 nM)) |
| C=CC(=O)N1CCN(CCn2c(=O)ccc3cnc(Nc4ccn(C(C)C)n4)nc32)[C@@H](CC)C1 [Example 259] | B (B represents pKi value between 9 and 10 (Ki between 1 nM and 0.1 nM)) | – | – | E (E represents a pKi value of 7 or below (Ki of 100 nM or above)) | – | – | A (A represents a value of 3 or above) | C (C represents a pIC50 value between 6 and 6.7 (IC50 between 1 μM and 200 nM)) |
| C=CC(=O)N1CC(C)(CCn2c(=O)ccc3cnc(Nc4ccc(N5CCN(C)CC5)cc4)nc32)C1 [Example 260] | B (B represents pKi value between 9 and 10 (Ki between 1 nM and 0.1 nM)) | – | – | E (E represents a pKi value of 7 or below (Ki of 100 nM or above)) | – | – | A (A represents a value of 3 or above) | A (A represents a pIC50 value≥7.5 (IC50≤32 nM)) |
| C=CC(=O)N1CCN(CCn2c(=O)ccc3cnc(Nc4cnn(C)c4)nc32)[C@@H](CC#N)C1 [Example 261] | B (B represents pKi value between 9 and 10 (Ki between 1 nM and 0.1 nM)) | – | – | E (E represents a pKi value of 7 or below (Ki of 100 nM or above)) | – | – | A (A represents a value of 3 or above) | B (B represents a pC50 value between 6.7 (included) and 7.5 (IC50 between 200 nM and 32 nM)) |
| C=CC(=O)N1CCN(CCn2c(=O)ccc3cnc(Nc4cnn(C)c4)nc32)[C@@H](CN(C)C)C1 [Example 262] | C (C represents a pKi value between 8 and 9 (Ki between 10 nM and 1 nM)) | – | – | E (E represents a pKi value of 7 or below (Ki of 100 nM or above)) | – | – | B (B represents a value of 2.5 to 3) | C (C represents a pIC50 value between 6 and 6.7 (IC50 between 1 μM and 200 nM)) |
| C=CC(=O)N1CCN(CCn2c(=O)ccc3cnc(Nc4ccc(N5C[C@@H](C)N(C)[C@H](C)C5)cc4)nc32)[C@@H](CC)C1 [Example 263] | B (B represents pKi value between 9 and 10 (Ki between 1 nM and 0.1 nM)) | – | – | E (E represents a pKi value of 7 or below (Ki of 100 nM or above)) | – | – | A (A represents a value of 3 or above) | A (A represents a pIC50 value≥7.5 (IC50≤32 nM)) |
| C=CC(=O)N1CC(CCn2c(=O)ccc3cnc(Nc4ccc(N5C[C@@H](C)N(C)[C@H](C)C5)cc4)nc32)C1 [Example 264] | B (B represents pKi value between 9 and 10 (Ki between 1 nM and 0.1 nM)) | – | – | E (E represents a pKi value of 7 or below (Ki of 100 nM or above)) | – | – | A (A represents a value of 3 or above) | A (A represents a pIC50 value≥7.5 (IC50≤32 nM)) |
